The target of one data set is T1, CYP3A4 (Homo sapiens, UniProt P08684).
T1 construct: using isoform-specific substrates incubated with human liver microsomes; tissue Eurofins protocol ITEMG232; host or cells: human liver microsomes
Put plainly: CYP inhibition in human liver microsomes, midazolam substrate. In kind it is in vitro ADME. The note with it: probe midazolam, read-out: CYP3A4 midazolam Inh %.

The nature of data set [1]: Metabolic stability in pooled human liver microsomes. As to conditions: human liver microsomes 0.5 mg/mL, 1 uM test compound, 37° C.; for T1/2, + NaDPH: with 1 mM NADPH; for half-life at 1 uM: pooled human liver microsomes, without NADPH, read-out: T1/2, no NaDPH. In kind it is in vitro ADME. The protocol:
Pooled human liver microsomes in PBS at a concentration of 0.5 mg/mL was incubated with or without 1 mM NADPH for 70 min at 37° C. Test compound was added after 10 minutes to a final concentration of 1 uM. Samples were withdrawn at 0, 5, 15 and 60 minutes and added to test tubes containing acetonitrile, to stop the reaction, and with terfenadine, used as internal standard. After centrifugation at 10 000×g for 5 minutes the supernatant was diluted 1:1 with 1% formic acid. Samples were separated on a reverse phase column and detected by triple quadrupole MSMS (Agilant model 6540). The concentration of the parent compound at the different time points was measured with an external standard curve using terfenadine as internal standard and the initial metabolic rate in the presence or absence of NADPH calculated.
(Microsomes from liver hold many membrane-bound enzymes, among them those of drug oxidation.)

Another data set has as its target T2, CYP2B6 (Homo sapiens, UniProt P20813).
T2 construct: using isoform-specific substrates incubated with human liver microsomes; tissue Eurofins protocol ITEMG232; host or cells: human liver microsomes
T2 sequence (P20813 1-491): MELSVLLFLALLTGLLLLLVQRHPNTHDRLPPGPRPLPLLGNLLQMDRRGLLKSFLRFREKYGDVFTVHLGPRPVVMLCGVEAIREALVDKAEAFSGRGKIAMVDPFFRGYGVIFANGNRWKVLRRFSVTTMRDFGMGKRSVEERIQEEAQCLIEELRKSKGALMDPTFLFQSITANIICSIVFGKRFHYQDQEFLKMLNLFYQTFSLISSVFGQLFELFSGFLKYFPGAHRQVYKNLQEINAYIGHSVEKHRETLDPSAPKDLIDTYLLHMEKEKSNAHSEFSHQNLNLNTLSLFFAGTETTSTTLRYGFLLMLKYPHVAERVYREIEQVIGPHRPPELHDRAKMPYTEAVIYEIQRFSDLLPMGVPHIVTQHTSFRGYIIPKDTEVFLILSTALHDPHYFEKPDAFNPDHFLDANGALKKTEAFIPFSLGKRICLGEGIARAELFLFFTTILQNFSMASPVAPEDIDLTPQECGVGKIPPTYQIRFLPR
Briefly: CYP inhibition in human liver microsomes, bupropion substrate. It counts as in vitro ADME. As to conditions: probe bupropion, read-out: CYP2B6 Inh %.

The next data set concerns the target T3, CYP1A (Homo sapiens, UniProt P05177).
T3 construct: using isoform-specific substrates incubated with human liver microsomes; tissue Eurofins protocol ITEMG232; host or cells: human liver microsomes
Briefly: CYP inhibition in human liver microsomes, phenacetin substrate. In kind it is in vitro ADME. As to conditions: probe phenacetin, read-out: CYP1A Inh %.

The next data set addresses T4, CYP2C19 (Homo sapiens, UniProt P33261).
T4 construct: using isoform-specific substrates incubated with human liver microsomes; tissue Eurofins protocol ITEMG232; host or cells: human liver microsomes
Put plainly: CYP inhibition in human liver microsomes, omeprazole substrate. As to conditions: probe omeprazole, read-out: CYP2C19 Inh %. In kind it is in vitro ADME.

Data set [2] deals with T5, human recombinant AT2 receptor (Homo sapiens, UniProt P50052).
T5 sequence (P50052 1-363): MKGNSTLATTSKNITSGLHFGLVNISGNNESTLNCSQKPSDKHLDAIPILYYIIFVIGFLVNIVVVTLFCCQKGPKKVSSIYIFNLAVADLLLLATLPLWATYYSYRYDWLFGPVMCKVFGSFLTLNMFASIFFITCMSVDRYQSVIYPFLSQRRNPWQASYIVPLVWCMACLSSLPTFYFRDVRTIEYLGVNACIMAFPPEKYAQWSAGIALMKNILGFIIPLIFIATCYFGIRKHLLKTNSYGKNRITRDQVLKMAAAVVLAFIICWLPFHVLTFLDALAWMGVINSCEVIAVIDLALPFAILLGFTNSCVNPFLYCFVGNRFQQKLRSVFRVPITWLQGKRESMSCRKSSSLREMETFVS
Put plainly: biochemical. It counts as binding. The note with it: test concentrations 1, 10, 100 and 1000 nM; ligand 125I CGP 42112A; C21* = mean of runs; read-out: AT2 GraFit IC50.

The target of a further data set is T6, CYP2C8 (Homo sapiens, UniProt P10632).
T6 construct: using isoform-specific substrates incubated with human liver microsomes; tissue Eurofins protocol ITEMG232; host or cells: human liver microsomes
T6 sequence (P10632 1-490): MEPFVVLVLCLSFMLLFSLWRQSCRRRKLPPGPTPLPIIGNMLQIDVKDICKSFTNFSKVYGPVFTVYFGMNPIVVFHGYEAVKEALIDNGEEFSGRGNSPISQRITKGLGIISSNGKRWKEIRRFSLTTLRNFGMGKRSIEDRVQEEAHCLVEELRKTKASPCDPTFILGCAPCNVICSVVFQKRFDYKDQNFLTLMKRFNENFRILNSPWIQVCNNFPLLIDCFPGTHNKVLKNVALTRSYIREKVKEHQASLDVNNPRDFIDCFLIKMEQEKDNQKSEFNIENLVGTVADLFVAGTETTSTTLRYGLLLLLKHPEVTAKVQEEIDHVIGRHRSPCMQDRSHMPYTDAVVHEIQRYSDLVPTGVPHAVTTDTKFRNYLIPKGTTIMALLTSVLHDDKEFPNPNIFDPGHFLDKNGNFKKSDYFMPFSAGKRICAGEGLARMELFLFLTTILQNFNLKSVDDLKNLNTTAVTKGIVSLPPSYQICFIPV
Briefly: CYP inhibition in human liver microsomes, paclitaxel and amodiaquine substrates. In kind it is in vitro ADME. As to conditions: probe paclitaxel and amodiaquine, read-out: CYP2C8 Inh %.

The subject of a further data set is CYP3A4&5. Put plainly: CYP inhibition in human liver microsomes, testosterone substrate. In kind it is in vitro ADME. As to conditions: probe testosterone, read-out: CYP3A4&5 testosterone Inh %.
A further data set deals with T7, CYP2D6 (Homo sapiens, UniProt P10635).
T7 construct: tissue Eurofins protocol ITEMG232; host or cells: human liver microsomes
Briefly: CYP inhibition in human liver microsomes, dextromethorphan substrate. In kind it is in vitro ADME. The note with it: probe dextromethorphan, read-out: CYP2D6 Inh %.

Data set [3] addresses T8, human recombinant AT1 receptor (Homo sapiens, UniProt P30556).
T8 construct: Eurofins protocol ITEM24
T8 sequence (P30556 1-359): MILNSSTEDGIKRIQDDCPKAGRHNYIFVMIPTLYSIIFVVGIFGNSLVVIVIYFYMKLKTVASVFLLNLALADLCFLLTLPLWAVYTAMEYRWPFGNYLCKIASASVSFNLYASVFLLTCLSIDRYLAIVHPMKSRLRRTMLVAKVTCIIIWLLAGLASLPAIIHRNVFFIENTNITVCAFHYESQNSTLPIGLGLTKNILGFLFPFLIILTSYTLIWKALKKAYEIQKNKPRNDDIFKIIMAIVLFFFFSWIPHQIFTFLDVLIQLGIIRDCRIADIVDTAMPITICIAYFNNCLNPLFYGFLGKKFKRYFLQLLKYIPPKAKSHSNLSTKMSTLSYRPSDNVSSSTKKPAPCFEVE
Put plainly: Binding to AT1 receptor, radiometric scintillation assay (Eurofins ITEM24).

The next data set addresses T9, CYP2C9 (Homo sapiens, UniProt P11712).
T9 construct: using isoform-specific substrates incubated with human liver microsomes; tissue Eurofins protocol ITEMG232; host or cells: human liver microsomes
Briefly: CYP inhibition in human liver microsomes, diclofenac substrate. In kind it is in vitro ADME. The note with it: probe diclofenac, read-out: CYP2C9 Inh %.

In data set [4] the test system is Cytochrome P450 enzymes (CYPs), especially CYP 2C9 and CYP 3A4. Briefly: CYP enzyme inhibition, statements in text without method. It counts as in vitro ADME. The note with it: found during development.
Data set [5] can be described thus: Metabolic hydrolysis, statement in text without method. In kind it is in vitro ADME. As to conditions: found during development.

Each structure is given as a SMILES string. pIC50: −log10 of the molar value. Some results are limits rather than exact numbers.

T7 sequence (P10635 whole entry): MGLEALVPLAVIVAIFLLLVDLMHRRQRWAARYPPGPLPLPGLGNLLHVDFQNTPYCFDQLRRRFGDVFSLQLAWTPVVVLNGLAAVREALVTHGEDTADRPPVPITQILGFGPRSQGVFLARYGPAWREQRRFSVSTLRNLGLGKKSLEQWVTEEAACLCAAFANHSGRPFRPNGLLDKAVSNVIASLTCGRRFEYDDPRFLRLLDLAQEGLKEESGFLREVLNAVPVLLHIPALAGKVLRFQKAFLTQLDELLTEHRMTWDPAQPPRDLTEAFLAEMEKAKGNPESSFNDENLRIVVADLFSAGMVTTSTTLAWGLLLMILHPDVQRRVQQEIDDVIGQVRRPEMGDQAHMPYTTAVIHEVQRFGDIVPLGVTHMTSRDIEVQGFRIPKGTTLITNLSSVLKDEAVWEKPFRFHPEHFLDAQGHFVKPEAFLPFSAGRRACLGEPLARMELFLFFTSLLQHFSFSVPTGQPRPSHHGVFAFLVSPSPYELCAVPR
T9 sequence (P11712 whole entry, canonical isoform): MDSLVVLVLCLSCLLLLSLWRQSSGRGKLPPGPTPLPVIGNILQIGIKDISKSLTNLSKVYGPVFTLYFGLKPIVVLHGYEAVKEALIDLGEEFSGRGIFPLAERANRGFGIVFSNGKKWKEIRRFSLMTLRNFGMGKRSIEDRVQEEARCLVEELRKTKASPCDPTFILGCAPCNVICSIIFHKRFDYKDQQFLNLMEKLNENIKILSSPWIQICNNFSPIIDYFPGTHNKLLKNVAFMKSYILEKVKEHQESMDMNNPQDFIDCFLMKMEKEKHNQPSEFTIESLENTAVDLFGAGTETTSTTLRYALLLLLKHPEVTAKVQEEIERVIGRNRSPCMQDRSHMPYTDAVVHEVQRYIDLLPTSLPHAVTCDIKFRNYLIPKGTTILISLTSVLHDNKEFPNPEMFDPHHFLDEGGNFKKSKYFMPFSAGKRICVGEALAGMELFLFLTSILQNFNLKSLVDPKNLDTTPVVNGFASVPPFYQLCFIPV
T1 sequence (P08684 whole entry, canonical isoform): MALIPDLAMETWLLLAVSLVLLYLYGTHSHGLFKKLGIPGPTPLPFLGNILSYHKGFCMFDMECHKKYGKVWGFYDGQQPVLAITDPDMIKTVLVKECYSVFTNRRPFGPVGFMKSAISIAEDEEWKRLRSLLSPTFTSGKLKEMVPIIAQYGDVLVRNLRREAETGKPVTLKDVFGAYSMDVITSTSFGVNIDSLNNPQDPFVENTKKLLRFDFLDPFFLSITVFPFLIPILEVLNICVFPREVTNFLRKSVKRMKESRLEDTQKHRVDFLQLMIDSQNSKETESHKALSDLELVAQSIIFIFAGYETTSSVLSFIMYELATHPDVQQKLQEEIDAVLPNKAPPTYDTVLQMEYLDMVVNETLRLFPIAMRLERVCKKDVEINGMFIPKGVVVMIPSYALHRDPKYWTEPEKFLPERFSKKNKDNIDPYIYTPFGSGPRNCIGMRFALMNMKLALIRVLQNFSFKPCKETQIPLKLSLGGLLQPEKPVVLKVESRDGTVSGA
T3 sequence (P05177 whole entry, canonical isoform): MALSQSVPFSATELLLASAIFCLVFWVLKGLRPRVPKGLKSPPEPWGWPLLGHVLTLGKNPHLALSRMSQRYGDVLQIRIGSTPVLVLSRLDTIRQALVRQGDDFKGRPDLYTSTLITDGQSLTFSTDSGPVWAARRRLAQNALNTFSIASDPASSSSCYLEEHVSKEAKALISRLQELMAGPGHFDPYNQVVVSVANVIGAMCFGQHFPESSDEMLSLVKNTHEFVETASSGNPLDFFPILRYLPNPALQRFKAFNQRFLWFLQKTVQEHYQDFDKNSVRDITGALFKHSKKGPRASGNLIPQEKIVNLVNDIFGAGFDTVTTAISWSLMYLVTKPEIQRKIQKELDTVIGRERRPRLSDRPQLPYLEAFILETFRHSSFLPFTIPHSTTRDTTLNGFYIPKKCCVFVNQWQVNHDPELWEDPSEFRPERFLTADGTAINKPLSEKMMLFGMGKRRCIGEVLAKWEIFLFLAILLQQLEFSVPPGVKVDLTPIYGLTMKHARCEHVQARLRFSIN
T4 sequence (P33261 whole entry, canonical isoform): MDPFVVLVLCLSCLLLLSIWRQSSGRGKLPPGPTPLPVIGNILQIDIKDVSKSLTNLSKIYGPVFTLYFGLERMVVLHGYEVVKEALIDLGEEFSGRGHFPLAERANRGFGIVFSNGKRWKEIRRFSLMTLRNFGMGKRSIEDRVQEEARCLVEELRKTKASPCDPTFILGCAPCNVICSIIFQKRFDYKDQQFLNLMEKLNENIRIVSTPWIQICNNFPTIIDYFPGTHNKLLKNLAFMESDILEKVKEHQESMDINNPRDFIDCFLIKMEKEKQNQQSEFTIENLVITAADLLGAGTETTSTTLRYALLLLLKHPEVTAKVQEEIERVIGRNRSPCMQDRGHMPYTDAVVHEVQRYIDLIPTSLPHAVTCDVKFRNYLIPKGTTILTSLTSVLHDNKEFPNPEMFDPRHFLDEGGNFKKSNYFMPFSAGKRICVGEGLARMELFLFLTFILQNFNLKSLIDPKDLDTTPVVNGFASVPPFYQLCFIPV

The term pIC50 denotes the IC50 on a negative log10 scale, so that one unit is a factor of ten. As for `CC(C)Cc1cc(-c2ccc(Cn3ccnc3C(C)(C)C)c(F)c2)c(S(=O)(=O)NC(=O)NCC(C)(C)O)s1` [Example 7, 1-[[3-[4-[(2-tert-Butylimidazol-1-yl)methyl]-3-fluoro-phenyl]-5-isobutyl-2-thienyl]sulfonyl]-3-(2-hydroxy-2-methyl-propyl)urea], the inhibition at 10 µM on CYP3A4 came to 7.7%; on CYP2B6, 17.4%; at CYP1A, 2.7%; at CYP2C19, 27.4%; on CYP2C8 it was 69.8%; in the data set on CYP3A4&5 it was 2.8%. The inhibition at 10 µM on CYP2D6 is 3.9%; on CYP2C9, 9.9%. The “T1/2, + NaDPH” value in [1] was above 1 h. The half-life at 1 uM in data set [1] is above 1 h. The pIC50 in data set [2] is 9.02; in data set [3] it was 5.72.

For the molecule `CCc1nccn1Cc1ccc(-c2cc(CC(C)C)sc2S(=O)(=O)NC(=O)NCCO)cc1F` [Example 8], the inhibition at 10 µM on CYP3A4 came out at 23.7%; at CYP2B6 it was 14%; at CYP1A, 11.8%; at CYP2C19, 17.7%; on CYP2C8 it was 2.3%; with CYP3A4&5, 22.3%. For the same molecule, the inhibition at 10 µM at CYP2D6 stood at 8%; on CYP2C9, 26.8%. Further, the “T1/2, + NaDPH” value in data set [1] is above 1 h. Also, the half-life at 1 uM in data set [1] was above 1 h. The pIC50 was 8.60 in data set [2] and 5.02 in data set [3].

In the case of `CCCCOC(=O)NS(=O)(=O)c1sc(CC(C)C)cc1-c1ccc(Cn2ccnc2)cc1` [Example C21, N-butyloxycarbonyl-3-(4-imidazol-1-ylmethylphenyl)-5-isobutylthiophene-2-sulfon-amide], the “inhibition of Cytochrome P450 enzymes (in words)” value in data set [4] is reported as “potent inhibitor”. Also, the “metabolic hydrolysis (in words)” value in [5] is “rapidly hydrolysed to an inactive sulfonamide metabolite”. Also, the inhibition at 10 µM with CYP3A4&5 came to 94%.

The record behind these values is patent US20240174657A1, “SELECTIVE ANGIOTENSIN II RECEPTOR LIGANDS” (priority 2021, published 2024).
